# From PMC12881670, “Investigation into ligand selectivity and bias at the formyl peptide receptor family” (The Journal of Pharmacology and Experimental Therapeutics, 2025)
# Like-named read-outs stand apart in the source and are kept apart here. Where a SMILES comes first, the peptide text is derived from it. Where no end group is shown, it is not given here. [ ]: non-standard residue; d: D form. The star is where a group is joined. For = O=C*
# T1: Mm_Fpr1 (Mus musculus, UniProt P33766)
# T1 construct: expressed in transfected cells
# T1 sequence (P33766 1-364): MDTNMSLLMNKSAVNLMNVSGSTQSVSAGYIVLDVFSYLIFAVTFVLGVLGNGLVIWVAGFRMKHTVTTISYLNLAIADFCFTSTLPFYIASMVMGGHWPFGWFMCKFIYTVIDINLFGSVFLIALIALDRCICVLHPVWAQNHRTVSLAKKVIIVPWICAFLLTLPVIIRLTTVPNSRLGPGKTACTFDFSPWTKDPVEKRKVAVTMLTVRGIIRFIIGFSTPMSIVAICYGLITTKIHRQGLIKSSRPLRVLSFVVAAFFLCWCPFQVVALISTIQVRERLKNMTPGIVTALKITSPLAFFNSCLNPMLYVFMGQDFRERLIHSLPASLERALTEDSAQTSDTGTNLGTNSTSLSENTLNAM
# T2: Mm_Fpr2 (Mus musculus, UniProt O88536)
# T2 construct: expressed in transfected cells
# T2 sequence (O88536 1-351): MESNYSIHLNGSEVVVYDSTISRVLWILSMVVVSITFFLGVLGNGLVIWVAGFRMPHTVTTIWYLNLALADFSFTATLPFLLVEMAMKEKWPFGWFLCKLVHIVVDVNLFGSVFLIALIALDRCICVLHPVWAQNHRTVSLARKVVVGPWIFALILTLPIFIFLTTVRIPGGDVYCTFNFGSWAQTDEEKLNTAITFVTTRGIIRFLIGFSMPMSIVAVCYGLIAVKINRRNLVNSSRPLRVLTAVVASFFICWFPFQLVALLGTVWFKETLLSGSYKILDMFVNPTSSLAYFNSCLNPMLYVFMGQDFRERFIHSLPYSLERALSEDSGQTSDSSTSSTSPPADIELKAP
# T3: Hs_FPR1 (Homo sapiens, UniProt P21462)
# T3 construct: expressed in transfected cells
# T3 sequence (P21462 1-350): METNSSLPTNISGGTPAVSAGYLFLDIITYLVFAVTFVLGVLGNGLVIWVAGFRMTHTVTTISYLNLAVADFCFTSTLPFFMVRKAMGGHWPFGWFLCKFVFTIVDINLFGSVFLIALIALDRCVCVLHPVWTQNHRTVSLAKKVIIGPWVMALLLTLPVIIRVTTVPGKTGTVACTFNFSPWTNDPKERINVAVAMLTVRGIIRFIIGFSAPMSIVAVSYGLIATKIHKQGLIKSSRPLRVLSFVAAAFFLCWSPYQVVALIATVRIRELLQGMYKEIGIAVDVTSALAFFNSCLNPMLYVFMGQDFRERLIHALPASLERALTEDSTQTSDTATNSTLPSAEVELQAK
# T4: FLAG-tagged mouse Fpr1 (Mm_Fpr1) (mouse, UniProt P33766 1-364)
# T4 construct: mouse formyl peptide receptor 1; cDNA purchased (ThermoFisher); source: HEK293, stably expressed, on cells; not shown: FLAG, N-terminal, kept
# T4 sequence (looked up): T1 sequence (P33766 1-364)
# T5: FLAG-tagged human FPR1 (Hs_FPR1) (human, UniProt P21462 1-350)
# T5 construct: human formyl peptide receptor 1; cDNA purchased (cDNA.org); source: HEK293, stably expressed, on cells; not shown: FLAG, N-terminal, kept
# T5 sequence (looked up): T3 sequence (P21462 1-350)
# B1: WKYMVm (peptide)
# peptide: WKYMV[dM]
# notes: the last residue is the D form; the bought peptide is probably also an amide (surmise); source: bought: Tocris
# Legend:
# [1] = molecular target: T1, Mm_Fpr1; experiment: ERK1/2 phosphorylation by Western blotting; assay type: cell-based; set-up: Emax: dose or concentration left out as unconfirmed; settings: for Log EC50 (M) / EC50: log of EC50, phosphorylation of ERK1/2, HEK293 stable cells; for Log EC50 (M) / Emax (%) / EC50: mean, ND = no pERK signal detected; for Emax (%): phospho-ERK, % of 1 μM WKYMVm
# [2] = system: FPR2; settings: read-out: EC50 arrestin recruitment, Pathhunter, cited from earlier work
# [3] = system: FPR1; settings: at 100 nM; cited from earlier work
# [4] = system: formyl peptide receptor family (Hs_FPR1, Hs_FPR2, Mm_Fpr1, Mm_Fpr2); experiment: Summary of main findings: receptor subtype selectivity and ligand bias across all readouts; set-up: species or system human and mouse; settings: for Bias: summary grade of ligand bias relative to WKYMVm, key not given; for Notes: summary of main findings, in words
# From the text: To determine ligand bias, a reference ligand is required, that is, “balanced” for the pathways tested.[37] […] We then used measurements of the activity ratio (Log (Emax/EC50)) for each receptor, ligand, and pathway in an attempt to observe any ligand bias (Fig. 6).
# [5] = molecular target: T2, Mm_Fpr2; experiment: BRET receptor-RLuc8 interaction with Venus-mGsi; assay type: cell-based; settings: for Log EC50 (M): log of EC50, HEK293 transient, 10 min; for Log EC50 (M) / Emax (%): mGsi BRET, mean, ND = no interaction detected; for Emax (%): % of response to 1 μM WKYMVm
# In short: (§1)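 RLuc8-fused FPR donor with Venus-mGsi or YFP-Arrestin 3 acceptor (1:4), transient; replate 24 h, grow 24–48 h. HBSS 30 min, coelenterazine h 5 μM final 5 min pre-compound, then 10 min 37 °C.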
# [6] = molecular target: T1, Mm_Fpr1; experiment: BRET receptor-RLuc8 interaction with Venus-mGsi; assay type: cell-based; settings: for Log EC50 (M): log of EC50, HEK293 transient, 10 min; for Log EC50 (M) / Emax (%): mGsi BRET, mean, ND = no interaction detected; for Emax (%): % of response to 1 μM WKYMVm
# In short: as §1
# [7] = molecular target: T3, Hs_FPR1; experiment: BRET receptor-RLuc8 interaction with Venus-mGsi; assay type: cell-based; settings: for Log EC50 (M): log of EC50, HEK293 transient, 10 min; for Log EC50 (M) / Emax (%): mGsi BRET, mean, ND = no interaction detected; for Emax (%): % of response to 1 μM WKYMVm
# In short: as §1
# [8] = molecular target: T4, FLAG-tagged mouse Fpr1 (Mm_Fpr1); experiment: flow cytometry on cells; competition binding: HEK293 cells stably expressing the receptor, lifted in PBS, on ice 90 min with 10 nM K(5/6-FAM)-WKYMVm and increasing unlabeled ligand; mean fluorescence of 5000 cells as % of that without competitor; One site-Fit logIC50
# [9] = molecular target: T5, FLAG-tagged human FPR1 (Hs_FPR1); experiment: as above
molecule,measurement,setting,value
Cc1cccc(-c2oc(C)nc2C(=O)Nc2cnn(Cc3nc(C(C)(F)F)co3)n2)c1 [ACT-389949],Log EC50 (M),[1],−6.383 M
same,Emax (%),[1],99.504%
same,EC50,[2]; FPR2,20 nM
same,"arrestin recruitment to FPR1, Pathhunter",[3],neither WKYMVM nor ACT-389949 resulted in recruitment
same,Bias,[4],No
same,Log EC50 (M),[5],−7.57 M
same,Emax (%),[5],116.06%
same,Log EC50 (M),[6],−5.74 M
same,Emax (%),[6],49.76%
same,Log EC50 (M),[7],−6.47 M
same,Emax (%),[7],60.56%
COc1cc(F)c([C@@H]2CNC(=O)[C@H]2NC(=O)Nc2ccccc2)c(F)c1 [BMS-986235],Emax,[1],114%
same,EC50,[1],982 nM
same,EC50,[2]; Hs_FPR2,130 nM
same,Bias,[4],+ (Hs_FPR2)
same,Notes,[4],Bias against internalization
same,EC50,[5],166 nM
same,Emax,[5],104%
same,EC50,[6],1410 nM
same,Emax,[6],21.7%
same,EC50,[7],2240 nM
same,Emax,[7],7.4%
CCCCOc1ccc(C(=O)NN2C(=O)c3ccccc3NC2c2ccc(OC)cc2)cc1 (centres unmarked) [QuinC1],Log EC50 (M),[1],−6.945 M
same,Emax (%),[1],150.3%
same,Bias,[4],No
same,Notes,[4],Partial/weak only
same,Log EC50 (M),[5],−6.35 M
same,Emax (%),[5],70.36%
same,Log EC50 (M),[6],−7.49 M
same,Emax (%),[6],30.89%
same,Log EC50 (M),[7],−5.34 M
same,Emax (%),[7],17.60%
CSCC[C@H](NC(=O)[C@H](Cc1ccc(O)cc1)NC(=O)[C@H](CCCCN)NC(=O)[C@@H](N)Cc1c[nH]c2ccccc12)C(=O)N[C@H](C(=O)N[C@H](CCSC)C(N)=O)C(C)C [WKYMVm],Emax,[1],102%
same,Emax,[5],103%
same,Emax,[6],109%
same,Emax,[7],112%
"CSCC[C@H](NC=O)C(=O)N[C@@H](CC(C)C)C(=O)N[C@@H](Cc1ccccc1)C(=O)N[C@@H](CCCCN)C(=O)O [fMLFK, fMet-Leu-Phe-Lys] (For-MLFK-OH)",Emax,[1],140%
same,EC50,[1],851 nM
same,EC50,[5],30200 nM
same,Emax,[5],82.7%
same,EC50,[6],9550 nM
same,Emax,[6],62.9%
same,EC50,[7],85.1 nM
same,Emax,[7],104%
LESIFRSLLFRVM [MMK1],Bias,[4],No
same,Notes,[4],Only activity at Hs_FPR2
B1,Log IC50,[8],-6.79 log M
same,Max Comp (%),[8],97%
same,Log IC50,[9],-7.42 log M
same,Max Comp (%),[9],96.8%
